Data set [1] has as its system Candida tropicalis. The data set can be described thus: Microdilution broth assay, minimum fungicidal concentration. In kind it is cell-based. Particulars: Candida tropicalis MY 1012. The protocol:
The usefulness of the compounds as antifungal agents particularly, for the treatment of mycotic infections may be illustrated with minimum fungicidal concentration (MFC) results with Compound IA in tests against Candida albicans, Candida tropicalis and Candida parapsilosis. The activity may be seen in a microdilution broth assay employing Yeast Nitrogen Base (Difco) with 10% dextrose (YNBD) as the medium. […] The compounds were then diluted to 256 μg/ml in YNBD. 0.15 ml of the suspension was dispensed to the top row of a 96-well plate (each well containing 0.15 ml of YNDB) resulting in a drug concentration of 128 μg/ml. Two-fold dilutions were then made from the top row to obtain final drug concentrations ranging from 128 to 0.06 μg/ml. The yeast cultures, maintained on Sabouraud dextrose agar were transferred to YM broth (Difco) and incubated overnight at 35° C. with shaking (250 rpm). After incubation, each culture was diluted in sterile water to yield a final concentration of 1-5×10^6 colony forming units (CFU)/ml. 96-well microplates were inoculated using a MIC-2000 (Dynatech) which delivers […] per well yielding a final inoculum per well of 1.5-7.5×10^3 cells. […] The minimum inhibitory concentrations (MICS) were recorded as the lowest concentrations of drug showing no visible growth. […] The inoculated trays were incubated 24 hours at 28° C. and then read. […]

Data set [2] concerns Candida parapsilosis. Described as above. In kind it is cell-based. From the text: (§1) The usefulness of the compounds as antifungal agents particularly, for the treatment of mycotic infections may be illustrated with minimum fungicidal concentration (MFC) results with Compound IA in tests against Candida albicans, Candida tropicalis and Candida parapsilosis.
(§2) The activity may be seen in a microdilution broth assay employing Yeast Nitrogen Base (Difco) with 10% dextrose (YNBD) as the medium. In carrying out the assay, Compound Ia was solubilized in 10 percent dimethyl sulfoxide (DMSO) and diluted to 2560 μg/ml. The compounds were then diluted to 256 μg/ml in YNBD. 0.15 ml of the suspension was dispensed to the top row of a 96-well plate (each well containing 0.15 ml of YNDB) resulting in a drug concentration of 128 μg/ml. Two-fold dilutions were then made from the top row to obtain final drug concentrations ranging from 128 to 0.06 μg/ml.
(§3) The yeast cultures, maintained on Sabouraud dextrose agar were transferred to YM broth (Difco) and incubated overnight at 35° C. with shaking (250 rpm). After incubation, each culture was diluted in sterile water to yield a final concentration of 1-5×10^6 colony forming units (CFU)/ml.
(§4) 96-well microplates were inoculated using a MIC-2000 (Dynatech) which delivers […] per well yielding a final inoculum per well of 1.5-7.5×10^3 cells. The microplates were incubated at 35° C. for 24 hours. The minimum inhibitory concentrations (MICS) were recorded as the lowest concentrations of drug showing no visible growth.
(§5) After recording the MIC, the plates were shaken to resuspend the cells. Thereafter, […] samples from the wells in the 96-well microplate were transferred to a single well tray containing Sabouraud dextrose agar. The inoculated trays were incubated 24 hours at 28° C. and then read. The MFC is defined as the lowest concentration of drug showing no growth or less than 4 colonies per spot.

The subject of data set [3] is Candida albicans. Described as above. The format is cell-based.
Source text: as §1, §2, §3, §4, §5

Data set [4] can be described thus: Stability in aqueous media. The conditions noted are these: physiological pH range. In kind it is physicochemical.

Turning to “1-[4-hydroxy-N^2 -(10,12-dimethyl-1-oxo-tetradecyl)ornithine]-4-[3-hydroxy-homotyrosine]-5- [3-hydroxy-glutamine]echinocandin B [Compound Ia]”, the “Minimum Fungicidal Concentration” value was determined as 1 µg/mL in data set [1]; 8 µg/mL in data set [2] (Candida parapsilosis MY 1008); 4 µg/mL in data set [2] (Candida parapsilosis MY 1010); 0.5 µg/mL in data set [3] (Candida albicans MY 1028); 1 µg/mL in data set [3] (Candida albicans MY 1055); 2 µg/mL in data set [3] (Candida albicans MY 1208). Moreover, the “Minimum Fungicidal Concentration” value in data set [3] (Candida albicans MY 1585) stood at 0.25 µg/mL; in data set [3] (Candida albicans MY 1750) it was 0.25 µg/mL; in data set [3] (Candida albicans MY 1783), 0.5 µg/mL. The “stability in aqueous medium” value in data set [4] was “exhibit the stability in aqueous medium desired”.

“1-[4-hydroxy-N^2 -(10,12-dimethyl-1-oxo-tetradecyl)ornithine]-5-[3-hydroxy-glutamine]echino candin B [Compound Ib]”: the “stability in aqueous medium” value in data set [4] is on record as “exhibit the stability in aqueous medium desired”.

These data come from patent US5310726A, “Lipopeptide compounds” (Merck & Co., Inc., priority 1990, dated 1994).
